≈ marks a conversion by molar mass, not a printed value. Counter-ions that a name gives are not always drawn. Like-named read-outs stand apart in the source and are kept apart here. Where only a bound is given, the exact number is not on record here.

Data set [1] has as its system Rat glioma C6 cells. The experiment in a line: Anti-inflammatory activity: isoproterenol-induced intracellular cAMP synthesis. It is filed as cell-based. How it is done:
The anti-inflammatory activity of para-topolin and para-topolin mesylate was determined; cytokinin kinetin was also evaluated as a control. Rat glioma C6 cells (ATCC No. CCL107) were cultured in a monolayer in chemically defined beser medium containing Ham's F10/minimal essential medium (1:1 v/v), 2 mM L-glutamine, 1% (v/v). Minimum vitamins of essential medium (100×), 1% (v/v) minimum essential amino acids (100×), 100 U/ml penicillin, […] streptomycin and 30 nM sodium selenite. Incubation was performed at 37° C. in a 100% humidified atmosphere. The assays were performed in logarithmic growth phase at a density of 2.5×10^5 cells/cm^2. Intracellular cAMP synthesis was induced by the addition of 5 mM (−)-isoproterenol; at the same time, various concentrations of tested compounds were added at the same time as (−)-isoproterenol. After 30 minutes of incubation, the cellular amount of CAMP was determined by ELISA (cAMP-enzyme immunoassay from Amersham). IC50 values were determined from the […] dose-response curve.

Data set [2] in a line: ORAC (Oxygen Radical Absorbance Capacity), ability to scavenge free radicals. It is filed as biochemical. Conditions: n = 3. How it is done: The ability of the substance to scavenge free radicals in vitro was determined using the ORAC (Oxygen Radical Absorbance Capacity) method. Briefly, 100 μl of fluorescein ([…]) and 25 μl of tested substance solution were pipetted into each well of a 96-well microtiter plate preheated to 37° C. The reaction itself was started by the addition of 25 μL 250 mM AAPH. After shaking for 5 s, the fluorescence (Ex. 485 nm, Em. 510 nm) was read every 3 min for 90 min using an Infinite 200 instrument (TECAN, Switzerland). The area under the curve was used to express the antioxidant capacity relative to trolox, which is used as a standard. […] Such activities are likely to be closely related to the electron-rich C6-hydroxybenzylamino substituent system.

The test system of data set [3] is Human diploid fibroblast BJ. The experiment in a line: MTT cytotoxicity assay in normal fibroblasts. The class given is cell-based. Conditions: 72 hours. How it is done: MTT (metabolic tetrazolium toxicity) assay is a standard colorimetric assay for evaluation of cytotoxicity. Mitochondrial dehydrogenase activity converts yellow MTT into violet formazan which is measured by means of spectrometry. Human diploid fibroblast BJ (passage 18-22) were seeded into 96-well plate (5.000 cells per well). After 6 hours cultivation medium (DMEM with 5 g/l glucose, 2 mM glutamine, 100 U/ml penicillin, […] streptomycin, 10% fetal calf serum and sodium bicarbonate) was replaced with the cultivation medium containing test compounds in concentration range of 0-200 μM. Highest concentration was adjusted if the solubility of the compound was limiting. Every concentration was tested in pentaplicate. MTT was added to the cells after 72 hours incubation (final concentration 0.5 mg/ml) and incubation continued for another 3 hours. MTT was solubilised by DMSO and absorbance at 570 nm was measured. Growth inhibition (GI) was estimated using the following equitation: GI=(mean A drug exposed wells-mean Ablank/mean Acontrol wells−mean Ablank)×100%. The GI20 value, the drug concentration causing 20% decrease in mitochondrial dehydrogenase activity, was calculated from the obtained dose response curves.

The subject of data set [4] is Salmonella typhimurium strain TA 98, TA 100, TA 1535, TA 1537 and Escherichia coli strain WP2 avrA. The experiment in a line: Ames test (bacterial reverse mutation assay). The class given is cell-based. To be noted: 10-1000 μg per plate, with and without metabolic activation (rat liver supernatant). How it is done: Para-topolin and para-topolin mesylate were tested for mutagenicity by a bacterial reverse mutation assay. The performance of the test was based on the EU method B.13/14 Mutagenicity-Reverse mutation test using bacteria, Council Regulation (EC) No. 440/2008, which is analogous to the OECD Test Guideline No. 471. Four indicators of Salmonella typhimurium strain TA 98, TA 100, TA 1535, TA 1537 were used and one Escherichia coli strain WP2 avrA was also used. The test substances were dissolved in dimethyl sulfoxide (DMSO) and tested at doses of 10-1000 μg per plate, which was applied to 0.1 ml plates. The experiments were performed with metabolic activation with rat liver supernatant and cofactor mixture as well as without metabolic activation.
Background: The Ames test detects mutagens through reverse mutation in bacteria.

A short description of data set [5]: Solubility in various organic solvents. It is filed as physicochemical. Here is the method:
Solubility in various organic solvents was measured using the following protocol. Approximately 10 mg portions of para-topolin and crystalline para-topolin mesylate salt were placed in different vials, separately. Five volume aliquots of each solvent were added exclusively to a vial. Between each addition, the mixture was checked for dissolution and if no dissolution was apparent, the procedure was continued until dissolution was observed or further volumes had been added.

Data set [6] relates to Senescent human diploid fibroblasts. The experiment in a line: Senescent cells (beta-galactosidase X-gal staining) in human fibroblast culture. The class given is cell-based. How it is done:
Senescent human diploid fibroblasts (cells of different levels of passage: passage 20-P20; passage 40—labeled P40; passage 80—labeled P80) were seeded in a 24-well plate (10,000 cells/well). The culture medium (DMEM containing 5 g/l glucose, 2 mM glutamine, 100 U/ml penicillin, 100 μg/ml streptomycin and 10% fetal calf serum) was removed and replaced with culture medium containing test compound in a concentration range of 0 to 12.5 μM. Each concentration was tested in triplicate. The cells were then incubated at 37° C. […] In this experiment, senescent cells, but not other cells, were stained blue due to β-galactosidase on the substrate. […] In the oldest cells, there were only blue cells, from bright blue to almost opaque in color. Both para-topolins (base and mesylate salt) were effective in maintaining much lower levels of senescent cells after 80 passages. In the case of long-term culture, the treated cells were able to live 30% longer than the control cells.

The mark [7] stands for this setting: isoproterenol-induced cAMP, C6 cells.

As to `Oc1ccc(CNc2ncnc3nc[nH]c23)cc1` [para-topolin mesylate, 6-(4-hydroxybenzylamino) purine (para-topolin) mesylate (methylsulphonate)], in data set [1] (setting [7]), the “Anti-inflammatory activity (in words)” value was “showed anti-inflammatory activity”. In addition, the “Anti-inflammatory activity relative to free base para-topolin” value in data set [1] (setting [7]) is recorded as “twice more active”. The “ORAC Average(TE), Trolox equivalents on equimolar basis” value in data set [2] (listed as 6-(4-hydroxybenzylamino)purinium mesylate (pT mesylate)) was found to be 21.436 TE. The “Cytotoxicity for Human Diploid Fibroblasts GI20” value in data set [3] (listed as 6-(4-hydroxybenzylamino)purine mesylate (para-topolin mesylate)) was >167 µM. The Mutagenicity result in data set [4] was “non-mutagenic”. For the same molecule, the Solubility (as a rule, the concentration that dissolves in the medium under given conditions) in data set [5] (DMF, listed as p-topolin mesylate) was 14000 µg/mL; in data set [5] (DMSO, listed as p-topolin mesylate), 10000 µg/mL; in data set [5] (acetone, listed as p-topolin mesylate) it was 330 µg/mL; in data set [5] (acetonitrile), <250 µg/mL; in data set [5] (ethanol, listed as p-topolin mesylate), 400 µg/mL; in data set [5] (heptane), <100 µg/mL. In data set [5] (methanol, listed as p-topolin mesylate), the Solubility amounted to 5000 µg/mL. Moreover, the “Senescent cells (%)” value in data set [6] (cell passage P20, listed as 6-(4-hydroxybenzylamino)purine mesylate (para-topolin mesylate)) was determined as 3%; in data set [6] (cell passage P40, listed as 6-(4-hydroxybenzylamino)purine mesylate (para-topolin mesylate)), 12%; in data set [6] (cell passage P80, listed as 6-(4-hydroxybenzylamino)purine mesylate (para-topolin mesylate)), 21%.
As to `Oc1ccc(CNc2ncnc3nc[nH]c23)cc1` [para-topolin, 6-(4-Hydroxybenzylamino) purine], the IC50 (commonly the midpoint of a concentration-inhibition curve) in data set [1] (Rattus norvegicus, C6, 0.5 h, 5 mM (−)-isoproterenol, 30 minutes, cAMP by ELISA) was found to be 7 µM. Besides, the “Anti-inflammatory activity (in words)” value in data set [1] (setting [7]) is “showed anti-inflammatory activity”. For the same molecule, in data set [2] (listed as 6-(4-hydroxybenzylamino)purine (pT)), the “ORAC Average(TE), Trolox equivalents on equimolar basis” value stood at 16.799 TE. In addition, in data set [3] (listed as 6-(4-hydroxybenzylamino)purine (para-topolin)), the “Cytotoxicity for Human Diploid Fibroblasts GI20” value was determined as 138 µM. Also, the Mutagenicity result in data set [4] is on record as “non-mutagenic”. In addition, the Solubility in data set [5] (DMF, listed as p-topolin) is 5000 µg/mL (≈ 20700 µM); in data set [5] (DMSO, organic solvent or mixture, thermodynamic from solid, DMSO, read-out: Solubility), 6660 µg/mL (≈ 27600 µM); in data set [5] (acetone, organic solvent or mixture, thermodynamic from solid, acetone, read-out: Solubility) it was 200 µg/mL (≈ 829 µM); in data set [5] (acetonitrile, organic solvent or mixture, thermodynamic from solid, acetonitrile, read-out: Solubility), < 250 µg/mL; in data set [5] (ethanol, organic solvent or mixture, thermodynamic from solid, ethanol, read-out: Solubility), 250 µg/mL (≈ 1040 µM); in data set [5] (heptane, organic solvent or mixture, thermodynamic from solid, heptane, read-out: Solubility) it was < 100 µg/mL. Moreover, in data set [5] (methanol, listed as p-topolin), the Solubility came to 250 µg/mL (≈ 1040 µM). For the same molecule, the “Senescent cells (%)” value is reported as 4% in data set [6] (cell passage P20, listed as 6-(4-hydroxybenzylamino)purine (para-topolin)); 14% in data set [6] (cell passage P40, listed as 6-(4-hydroxybenzylamino)purine (para-topolin)); 25% in data set [6] (cell passage P80, listed as 6-(4-hydroxybenzylamino)purine (para-topolin)).

(Values after patent publication US12378247B2, “Mesylate salt of para-topolin, compositions containing said salt and use thereof” (USTAV EXPERIMENTALNI BOTANIKY AV CR, V. V. I., priority 2020, dated 2025).)
